Experimental data: BindingDB's records for doi:10.1016/0006-8993(88)90805-0 (Veterans Administration Medical Center, 1988)

Molecular target: Sodium-dependent serotonin transporter (Rattus norvegicus, UniProt P31652)
Sequence (P31652 whole entry): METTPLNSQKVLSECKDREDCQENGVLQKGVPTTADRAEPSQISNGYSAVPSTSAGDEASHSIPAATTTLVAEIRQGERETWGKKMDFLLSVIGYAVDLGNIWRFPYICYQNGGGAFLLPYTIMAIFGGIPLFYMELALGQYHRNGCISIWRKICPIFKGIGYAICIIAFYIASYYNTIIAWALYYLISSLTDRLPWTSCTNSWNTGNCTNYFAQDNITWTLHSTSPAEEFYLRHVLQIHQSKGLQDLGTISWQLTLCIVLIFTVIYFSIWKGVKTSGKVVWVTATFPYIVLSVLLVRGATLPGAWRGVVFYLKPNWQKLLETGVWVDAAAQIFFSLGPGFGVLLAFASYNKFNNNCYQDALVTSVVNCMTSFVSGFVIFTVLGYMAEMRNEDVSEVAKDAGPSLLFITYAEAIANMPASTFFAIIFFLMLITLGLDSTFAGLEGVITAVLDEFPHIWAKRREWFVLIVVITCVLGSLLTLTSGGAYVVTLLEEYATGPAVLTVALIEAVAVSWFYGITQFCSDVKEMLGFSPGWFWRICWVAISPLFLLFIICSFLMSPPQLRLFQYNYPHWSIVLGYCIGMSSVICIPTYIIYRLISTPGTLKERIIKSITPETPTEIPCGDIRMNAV

**Q.** CC[C@@H](CO)NC(=O)[C@@H]1C=C2c3cccc4c3c(cn4C)C[C@H]2N(C)C1 was tested. Which Ki did it give?
**A.** Its Ki is 3.7 µM.
